Measurements published in patent US8088366B2, “Attractant for Indian meal moth larve” (The United States of America, as represented by the …, priority 2009, dated 2012).

Experiments:
[1] = system: Plodia interpunctella neonatal larvae; test: Bioassay chamber choice test of larval attraction, neonatal larvae; format: in vivo; details: serially diluted, bioassayed over the range of 16 pg to 500 pg on 3MM pad; FIGS. 7 and 8
Excerpt: (§1) To isolate the attractant, the inventors bioassayed multiple materials that potentially comprised effective attractants. The bioassay chamber 10 was comprised of a Lincoln Wear-Ever (Fort Wayne, Ind.) baking pan (No. 9002) having the dimensions of 65 cm long, 45 cm wide and 2.5 cm high. A similarly sized Carb-x plastic top 12 (Rubbermaid Commercial Products Inc., Winchester, Va.) was modified for this application. (Note that FIG. 1 is a (top) plan view so that only the Carb-x plastic top 12 of the bioassay chamber is shown.)
The rows of three holes were ˜8 cm from the outer edge at the ends and ˜10 cm from the outer edge on the two sides, which spaced the three holes ˜12.5 cm apart, center to center. […]
Plodia larvae used in this study were reared on a standardized Plodia diet (Silhacek and Miller, 1972) at 30° C., 70% r.h. and a 16L:8D photoperiod as described previously (Silhacek et al, 2003) using eggs collected over a 1 h interval during the 2 h period preceding the scotophase. […] The samples were then removed, mixed with Plodia diet and the larvae counted after two days of additional growth.
In the first set of tests, the relative attractiveness of the three major, commercially available kernel tissue fractions of wheat were assessed. […]

[2] = system: Plodia interpunctella larvae (0.6 mg penultimate instar to mid-last instar); test: Bioassay chamber choice test of larval attraction, older larvae (early penultimate, newly molted last and mid-last instar); format: in vivo
Excerpt: as §1
The rows of three holes were ˜8 cm from the outer edge at the ends and ˜10 cm from the outer edge on the two sides, which spaced the three holes ˜12.5 cm apart, center to center. A 3.0 cm diameter hole 16 was drilled in the center of the top 12 to accept a bulkhead fitting 18 (# 16422, United States Plastic Corp., Lima, Ohio) complete with a right angle connection and a serrated vacuum hose 20. During the bioassay process, air was drawn into the chamber 10 through the six air inlet holes 14 and removed from the chamber 10 through the fitting 18 and vacuum hose 20 in the direction of the arrow 22.
Before each bioassay, the chambers 10 were washed with a dilute solution of Micro-90 detergent (International Products Corp, Burlington, N.J.), rinsed 3 times with tap water, 1 time with distilled water, 1 time with MeOH and air dried. Test samples were placed in flat polypropylene weigh boats. An individual sample was positioned at each end of the chamber 10 under the middle air inlets.
The six air inlet holes 14 were fitted with syringe ports (Part # MTL230-6, Value Plastics, Inc., Fort Collins, Colo.) and six 10 cc syringes 24 filled with activated charcoal were affixed. Low-density foam weather strip (6.3 mm thick×12.7 mm wide, not shown in FIG. 1) was attached along the four edges of the top 12 to form an airtight seal when placed on the bottom pan and tightened together with four Sparco Binder Clips, # 87010 (2″ wide, 1″ capacity) 26. A vacuum means (not shown) was attached to the vacuum hose 20 was adjusted to give an exit flow of ˜53 cc/min or one chamber volume (˜2.41) exchange every 45 min during the bioassay.
In addition to neonates, three other age groups of larvae were selected from the standardized cultures for bioassay to determine if they were attracted to the wheat grain and its components. These groups included newly molted penultimate instar (0.6±0.1 mg), newly molted last instar (3.2±0.2 mg) and mid-last instar (7.8±0.8 mg) (see Silhacek and Miller, 1972). In these assays, 10 larvae of the specified age, stage and weight range were transferred to the 16 mm sample cup at the beginning of the scotophase and immediately placed at the release point in the equilibrated bioassay chamber. The cover was secured to the chamber bottom and the larvae were given three hours to select the sample of choice and then the larvae on each sample were counted.
In the first set of tests, the relative attractiveness of the three major, commercially available kernel tissue fractions of wheat were assessed. The tissues were crude bran (Flint River Mills, Bainbridge, Ga.), Kretschmer's toasted wheat germ (Quaker Oats Co., Chicago, Ill.) and endosperm (organically grown, unbleached, unenriched all-purpose flour, Wards Super Market, Gainesville, Fla.).
The attractiveness of whole kernel wheat volatiles was examined by suspending a packet of whole wheat in the air stream entering the bioassay chamber over a sample of NASE. […]

Compound	attractancy to neonates [1]	attraction of older larvae at 31 pg ([2]; 31 pg on 3MM scintillation pad, three older age groups)	attraction of older larvae at 250-500 pg ([2]; 250-500 pg, some larvae captured in non-attractive NASE sample)	attraction of all larval stages when bioassayed ([2]; all larval stages of Plodia)	amount range of peak attraction of older larvae ([2]; three older age groups, amount on 3MM pad)	larval attraction by stage of development ([2]; through the middle (7.0-8.5 mg) of the final larval instar)
CCCCCc1ccco1 [2-pentyl furan]	attractive at all levels tested between 32 and 500 pg	Moderate but not significant attraction	Strong attraction	attracted to picogram quantities	62.5 to 125 pg	strong
CCCCCC=O [Hexanal, reference compound]	not attractive					
